The record followed here is US6346260B1, “Microbicidal active ingredients” (Ciba Specialty Chemicals Corporation, priority 1999, dated 2002).

Values after ≈ are worked out from the molar mass of the structure shown.

Common to all, as to assay type: cell-based
In experiment [1] the test system is Pseudomonas aeruginosa CIP A-22. Nature of the experiment: MIC in microtitre plates, Pseudomonas aeruginosa. The note with it: CIPA22; Table 2; Pseudomonas aeruginosa CIP-A 22; 48 hours at 37° C.; ≦20% growth; read-out: MIC PA. As to the method: (§1) Determination of Antimicrobial Activity in Accordance with the Microtitre Plate Method Determination of the Minimum Inhibitory Concentration (MIC value) in Microtitre Plates casein-soybean flour-peptone bouillon for the preparation of the precultures of the test bacteria and yeast. Pseudomonas aeruginosa CIP A-22 The test substances are predissolved in dimethyl sulfoxide (DMSO) and tested in a dilution series of 1:2. Bacteria and yeast are cultured overnight in CASO bouillon, the mould on mycological slant agar and rinsed off with 10 ml of 0.85% sodium chloride solution (+0.1% TritonX-100). All test organisms are adjusted to an organism count of 1-5*10^6 CFU/ml with 0.85% sodium chloride solution. The test substances are prepipetted into microtitre plates in an amount of 8 μl per well. Previously diluted test organism suspensions are diluted 1:100 in CASO bouillon (bacteria and yeast) and Sabouraud 2% glucose bouillon (mould) and added to the test substances in an amount of 192 μl per well. The test batches are incubated for 48 hours at 37° C. (bacteria and yeast) or for 5 days at 28° C. (mould). After incubation, the growth is determined by reference to the turbidity of the test batches (optical density) at 620 nm in a microplate reader. The minimum inhibitory concentration (MIC value) is the concentration of substance at which (compared with the growth of the control) an appreciable inhibition of the growth (≦20% growth) of the test organisms is ascertained. One microtitre plate is used for each test organism and substance concentration. All substances are tested in duplicate.

The test system of experiment [2] is Staphylococcus hominis DSM 20368. Kind of experiment: MIC in microtitre plates, Staphylococcus hominis. The settings on record: DSM20368, Table 2, 48 hours at 37° C., ≦20% growth. How it is done:
as §1, with “Staphylococcus hominis DSM 20328” for “Pseudomonas aeruginosa CIP A-22”

The subject of experiment [3] is Escherichia coli NCTC 8196. Kind of experiment: MIC in microtitre plates, Escherichia coli. The settings on record: NCTC8196; Table 2; Escherichia coli NCTC 8196; 48 hours at 37° C.; ≦20% growth; read-out: MIC EC. As to the method:
as §1, with “Escherichia coli NCTC 8196” for “Pseudomonas aeruginosa CIP A-22”

Experiment [4] relates to Aspergillus niger ATCC 6275. Kind of experiment: MIC in microtitre plates, Aspergillus niger. The settings on record: ATCC6275, 120 h; Table 2; Aspergillus niger ATCC 6275; 5 days at 28° C.; ≦20% growth; read-out: MIC AN. How it is done:
as §1, with “Mycological slant agar” for “casein-soybean flour-peptone bouillon”, “preculture” for “preparation”, “moulds. Aspergillus niger ATCC 6275” for “the precultures of the test bacteria and yeast. Pseudomonas aeruginosa CIP A-22”

The subject of experiment [5] is Candida albicans ATCC 10231. Nature of the experiment: MIC in microtitre plates, Candida albicans. The note with it: ATCC10231; Table 2; Candida albicans ATCC 10231; 48 hours at 37° C.; ≦20% growth; read-out: MIC CA. As to the method:
as §1, with “Candida albicans ATCC 10231” for “Pseudomonas aeruginosa CIP A-22”

For the molecule `O=C(CC(=O)c1cccs1)c1ccc(O)cc1` [(103)], the MIC in experiment [1], in experiment [2], in experiment [3], in experiment [4] and in experiment [5] was greater than 120 µg/mL in each case.
Take `COc1ccccc1C(=O)CC(=O)c1ccc(O)cc1` [(105)]: the MIC in experiment [1], in experiment [2], in experiment [3], in experiment [4] and in experiment [5] was greater than 120 µg/mL throughout.
Regarding `Cc1ccccc1C(=O)CC(=O)c1ccc(O)cc1` [(106)], the MIC in experiment [1], in experiment [2], in experiment [3], in experiment [4] and in experiment [5] was greater than 120 µg/mL each time.
On to `COc1ccc(C(=O)CC(=O)c2ccc(O)cc2)cc1OC` [(107)], for which the MIC (as a rule, the lowest concentration that inhibits growth of the organism) in experiment [1] was greater than 120 µg/mL; in experiment [2] it was greater than 120 µg/mL; in experiment [3] it was 120 µg/mL (≈ 400 µM); in experiment [4], 120 µg/mL (≈ 400 µM); in experiment [5], greater than 120 µg/mL.
Turning to `COc1cc(C(=O)CC(=O)c2ccc(O)cc2)cc(OC)c1OC` [(108)], the MIC in experiment [1], in experiment [2], in experiment [3], in experiment [4] and in experiment [5] was greater than 120 µg/mL in each case.
Take `COC(=O)c1cccc(C(=O)CC(=O)c2ccc(O)cc2)c1` [(109)]: the MIC in experiment [1], in experiment [2], in experiment [3], in experiment [4] and in experiment [5] was greater than 120 µg/mL each time.
As to `O=C(CC(=O)c1cccc(C(F)(F)F)c1)c1ccc(O)cc1` [(110)], the MIC in experiment [1] is greater than 120 µg/mL; in experiment [2], greater than 120 µg/mL; in experiment [3] it was 60 µg/mL (≈ 195 µM); in experiment [4] it was 60 µg/mL (≈ 195 µM); in experiment [5], greater than 120 µg/mL.
Consider `O=C(CC(=O)c1ccc(O)cc1)c1ccccc1` [(111)], for which the MIC in experiment [1], in experiment [2], in experiment [3], in experiment [4] and in experiment [5] was greater than 120 µg/mL in each case.
As for `Cc1ccc(O)c(C(=O)CC(=O)c2ccccc2)c1` [(112)], the MIC in experiment [1], in experiment [2], in experiment [3], in experiment [4] and in experiment [5] was greater than 120 µg/mL in each case.
With `Cc1cc(O)c(C(=O)CC(=O)c2ccccc2)cc1Cl` [(113)], the MIC in experiment [1], in experiment [2], in experiment [3], in experiment [4] and in experiment [5] was greater than 120 µg/mL in each case.
Regarding `O=C(CC(=O)c1cc(Br)ccc1O)c1ccccc1` [(114)], the MIC in experiment [1], in experiment [2], in experiment [3], in experiment [4] and in experiment [5] was greater than 120 µg/mL each time.
Regarding `O=C(CC(=O)c1ccccc1O)c1ccccc1` [(115)], the MIC in experiment [1], in experiment [2], in experiment [3], in experiment [4] and in experiment [5] was greater than 120 µg/mL in each case.
